The text below walks through data of US10351522B2, “Sulfonamide derivative and pharmaceutically acceptable acid addition salt thereof” (UNIVERSITY OF TSUKUBA, priority 2015, dated 2019).

For one experiment, the target named is T1, human OX2R (Homo sapiens, UniProt O43614).
T1 construct: expressed in transfected cells; host or cells: CHO (Chinese hamster ovary) cells, line CHOOX2R, co-expressing NFAT-luciferase
T1 sequence (O43614 1-444): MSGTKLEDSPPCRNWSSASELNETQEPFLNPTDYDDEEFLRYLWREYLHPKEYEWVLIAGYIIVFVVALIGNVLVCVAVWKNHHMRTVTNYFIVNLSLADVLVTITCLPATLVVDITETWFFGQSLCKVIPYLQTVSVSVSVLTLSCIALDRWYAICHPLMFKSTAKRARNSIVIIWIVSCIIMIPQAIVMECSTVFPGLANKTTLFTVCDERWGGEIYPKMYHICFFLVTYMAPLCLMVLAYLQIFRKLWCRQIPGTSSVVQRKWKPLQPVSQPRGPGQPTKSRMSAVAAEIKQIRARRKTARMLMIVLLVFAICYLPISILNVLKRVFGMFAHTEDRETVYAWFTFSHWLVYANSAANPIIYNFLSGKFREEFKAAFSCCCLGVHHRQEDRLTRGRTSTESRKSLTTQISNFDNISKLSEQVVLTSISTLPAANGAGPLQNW
Description: Agonist activity against OX2R: intracellular calcium (Fura-2AM, FDSS7000) in CHOOX2R cells. It is filed as cell-based. The following applies: relative to orexin-A as full agonist (100%). The method in brief: (§1)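 Response is agonist activity at 0.1, 1.0 or 10 μM compound as a percentage of the orexin-A full-agonist maximum, taken from 340/380 nm Fura-2 ratio changes. Each cell line is CHO constitutively expressing human OX1R or OX2R with NFAT-luciferase, dye-loaded 60 min with 5 μM Fura-2AM; compound range 10^−7–10^−5 M, 1% DMSO.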
Background: Calcium flux is commonly read through the fluorescence of an indicator in the cells.

Another experiment has as its target T2, human OX1R (Homo sapiens, UniProt O43613).
T2 construct: expressed in transfected cells; host or cells: CHO (Chinese hamster ovary) cells, line CHOOX1R, co-expressing NFAT-luciferase
T2 sequence (O43613 1-425): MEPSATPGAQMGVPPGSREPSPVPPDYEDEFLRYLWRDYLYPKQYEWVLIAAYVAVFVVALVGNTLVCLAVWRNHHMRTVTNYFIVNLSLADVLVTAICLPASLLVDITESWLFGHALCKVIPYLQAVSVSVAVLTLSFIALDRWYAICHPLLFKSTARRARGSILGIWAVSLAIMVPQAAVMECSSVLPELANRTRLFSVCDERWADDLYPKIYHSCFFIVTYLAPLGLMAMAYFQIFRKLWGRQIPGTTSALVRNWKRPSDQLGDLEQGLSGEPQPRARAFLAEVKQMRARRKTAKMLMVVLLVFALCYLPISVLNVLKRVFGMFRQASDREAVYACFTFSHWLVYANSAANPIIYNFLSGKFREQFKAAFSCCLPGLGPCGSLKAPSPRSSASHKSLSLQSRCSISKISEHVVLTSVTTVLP
As to the kind of experiment: Agonist activity against OX1R: intracellular calcium (Fura-2AM, FDSS7000) in CHOOX1R cells. Format: cell-based. As to conditions: for Emax at 0.1 µM / Emax at 1 µM / Emax at 10 µM: read-out: Response (%) OX1R. The method in brief: as §1

[1] abbreviates: test compound 0.1 μM, relative to orexin-A as full agonist (100%).
[2] abbreviates: test compound 1.0 μM, relative to orexin-A as full agonist (100%).
The mark [3] stands for this setting: test compound 10 μM, relative to orexin-A as full agonist (100%).

SMILES strings stand for the structures. Read-outs that look alike come from different tables or passages of the source.

As for `COc1ccc(C(=O)NCc2ccccc2)cc1S(=O)(=O)Nc1cccc(NC(=O)Nc2ccc(N(C)C)cc2)c1` [Example 108, N-benzyl-3-(N-(3-(3-(4-(dimethylamino)phenyl)ureido)phenyl)sulfamoyl)-4-methoxybenzamide], the entries for the “Response (%) OX2R” value on human OX2R (test compound 0.1 μM), on human OX2R (test compound 1.0 μM) and on human OX2R (test compound 10 μM) were 6%, 6% and 24%, respectively. Besides, the Emax at 0.1 µM on human OX1R (setting [1]) is below 5%. In addition, on human OX1R (setting [2]), the Emax at 1 µM was below 5%. The Emax at 10 µM at human OX1R (setting [3]) was below 5%.

For `COc1ccc(C(=O)NCc2cccnc2)cc1S(=O)(=O)Nc1cccc(NC(=O)Nc2ccc(N(C)C)cc2)c1` [Example 109], the “Response (%) OX2R” value on human OX2R (test compound 0.1 μM) is 7%; on human OX2R (test compound 1.0 μM), 6%; at human OX2R (test compound 10 μM) it was 39%. In addition, the “Response (%) OX1R” value on human OX1R (setting [1]) was 8%; on human OX1R (setting [2]) it was 9%; at human OX1R (setting [3]), 7%.

Regarding `CCN(Cc1ccccc1)C(=O)c1ccc(OC)c(S(=O)(=O)Nc2cccc(NC(=O)Nc3ccc(N(C)C)cc3)c2)c1` [Example 110], the “Response (%) OX2R” value on human OX2R (test compound 0.1 μM) worked out at 38%; at human OX2R (test compound 1.0 μM), 86%; at human OX2R (test compound 10 μM), 109%. Also, the “Response (%) OX1R” value at human OX1R (setting [1]), on human OX1R (setting [2]) and on human OX1R (setting [3]) was below 5% each time.

Turning to `CCN(Cc1cccnc1)C(=O)c1ccc(OC)c(S(=O)(=O)Nc2cccc(NC(=O)Nc3ccc(N(C)C)cc3)c2)c1` [Example 111], the “Response (%) OX2R” value is listed as 32% at human OX2R (test compound 0.1 μM), 88% at human OX2R (test compound 1.0 μM) and 100% on human OX2R (test compound 10 μM). Further, the “Response (%) OX1R” value at human OX1R (setting [1]), on human OX1R (setting [2]) and at human OX1R (setting [3]) was below 5% each time.

Regarding `COc1ccc(C(=O)NCCCNC(=O)OC(C)(C)C)cc1S(=O)(=O)Nc1cccc(NC(=O)Nc2ccccc2N(C)C)c1` [Example 112, tert-butyl (3-(3-(N-(3-(3-(2-(dimethylamino)phenyl)ureido)phenyl)sulfamoyl)-4-methoxybenzamido)propyl)carbamate], the results for the “Response (%) OX2R” value at human OX2R (test compound 0.1 μM), at human OX2R (test compound 1.0 μM) and at human OX2R (test compound 10 μM) were below 5%, 26% and 69%, respectively. Besides, the Emax at 0.1 µM at human OX1R (setting [1]) was below 5%. At human OX1R (setting [2]), the Emax at 1 µM is below 5%. The Emax at 10 µM on human OX1R (setting [3]) was below 5%.

Take `CCN(Cc1cccnc1)C(=O)c1ccc(OC)c(S(=O)(=O)Nc2cccc(NC(=O)Nc3ccccc3N(C)C)c2)c1` [Example 113]: the entries for the “Response (%) OX2R” value at human OX2R (test compound 0.1 μM), on human OX2R (test compound 1.0 μM) and at human OX2R (test compound 10 μM) were below 5%, 6% and 73%, respectively. Besides, the “Response (%) OX1R” value on human OX1R (setting [1]), at human OX1R (setting [2]) and on human OX1R (setting [3]) was below 5% throughout.

In the case of `COc1ccc(C(=O)N(C)C)cc1S(=O)(=O)Nc1cccc(NC(=O)Nc2ccccc2N(C)C)c1` [Example 114], the “Response (%) OX2R” value is listed as below 5% at human OX2R (test compound 0.1 μM), below 5% on human OX2R (test compound 1.0 μM) and 28% at human OX2R (test compound 10 μM). Moreover, the “Response (%) OX1R” value at human OX1R (setting [1]), at human OX1R (setting [2]) and at human OX1R (setting [3]) was below 5% in each case.

Regarding `CN(C)C(=O)c1cccc(-c2ccc(O)c(S(=O)(=O)Nc3cccc(NC(=O)Nc4cccc(N(C)C)c4)c3)c2)c1` [Example 115], the “Response (%) OX2R” value at human OX2R (test compound 0.1 μM) is listed as below 5%; at human OX2R (test compound 1.0 μM) it was 8%; on human OX2R (test compound 10 μM), 62%. The “Response (%) OX1R” value on human OX1R (setting [1]), at human OX1R (setting [2]) and on human OX1R (setting [3]) was below 5% throughout.

On to `Cc1ccc(-c2cccc(C(=O)N(C)C)c2)cc1S(=O)(=O)Nc1cccc(NC(=O)Nc2cccc(N(C)C)c2)c1` [Example 117], for which the “Response (%) OX2R” value at human OX2R (test compound 0.1 μM) is on record as below 5%; at human OX2R (test compound 1.0 μM), 16%; on human OX2R (test compound 10 μM), 44%. The “Response (%) OX1R” value on human OX1R (setting [1]), at human OX1R (setting [2]) and at human OX1R (setting [3]) was below 5% in each case.

For `CN(C)C(=O)c1cccc(-c2ccc(Cl)c(S(=O)(=O)Nc3cccc(NC(=O)Nc4cccc(N(C)C)c4)c3)c2)c1` [Example 118], the “Response (%) OX2R” value on human OX2R (test compound 0.1 μM) worked out at 11%; at human OX2R (test compound 1.0 μM), 36%; at human OX2R (test compound 10 μM), 71%. Further, the “Response (%) OX1R” value at human OX1R (setting [1]) amounted to 9%; on human OX1R (setting [2]), 8%; on human OX1R (setting [3]), 9%.

For the compound `CCOc1ccc(-c2cccc(C(=O)N(C)C)c2)cc1S(=O)(=O)Nc1cccc(NC(=O)Nc2cccc(N(C)C)c2)c1` [Example 119, 3′-(N-(3-(3-(3-(dimethylamino)phenyl)ureido)phenyl)sulfamoyl)-4′-ethoxy-N,N-dimethyl-[1,1′-biphenyl]-3-carboxamide], the entries for the “Response (%) OX2R” value at human OX2R (test compound 0.1 μM), on human OX2R (test compound 1.0 μM) and on human OX2R (test compound 10 μM) were 49%, 85% and 98%, respectively. The Emax at 0.1 µM at human OX1R (setting [1]) is below 5%. For the same compound, the Emax at 1 µM on human OX1R (setting [2]) is below 5%. Also, the Emax at 10 µM on human OX1R (setting [3]) is below 5%.

Consider `CCCOc1ccc(-c2cccc(C(=O)N(C)C)c2)cc1S(=O)(=O)Nc1cccc(NC(=O)Nc2cccc(N(C)C)c2)c1` [Example 120], for which the “Response (%) OX2R” value was found to be 29% at human OX2R (test compound 0.1 μM), 84% on human OX2R (test compound 1.0 μM) and 103% on human OX2R (test compound 10 μM). The “Response (%) OX1R” value at human OX1R (setting [1]), at human OX1R (setting [2]) and at human OX1R (setting [3]) was below 5% in each case.

In the case of `COc1ccc(-c2cccc(C(=O)N(C)C)c2)cc1S(=O)(=O)Nc1ccccc1NC(=O)Nc1cccc(N(C)C)c1` [Example 121], the “Response (%) OX2R” value at human OX2R (test compound 0.1 μM) was 7%; at human OX2R (test compound 1.0 μM), 47%; on human OX2R (test compound 10 μM), 104%. Further, the “Response (%) OX1R” value at human OX1R (setting [1]) is given as below 5%; at human OX1R (setting [2]), below 5%; at human OX1R (setting [3]), 10%.

As to `COc1ccc(-c2cccc(C(=O)N(C)C)c2)cc1S(=O)(=O)Nc1ccc(NC(=O)Nc2cccc(N(C)C)c2)cc1` [Example 122], the “Response (%) OX2R” value is on record as 7% on human OX2R (test compound 0.1 μM), 7% at human OX2R (test compound 1.0 μM) and 10% at human OX2R (test compound 10 μM). Further, the “Response (%) OX1R” value on human OX1R (setting [1]), on human OX1R (setting [2]) and at human OX1R (setting [3]) was below 5% each time.

Regarding `COc1ccc(-c2cccc(C(=O)N(C)C)c2)cc1S(=O)(=O)Nc1cccc(NC(=O)Nc2cccc(N(C)C)c2)c1OC` [Example 123, 3′-(N-(3-(3-(3-(dimethylamino)phenyl)ureido)-2-methoxyphenyl)sulfamoyl)-4′-methoxy-N,N-dimethyl-[1,1′-biphenyl]-3-carboxamide], on human OX2R (test compound 0.1 μM), the “Response (%) OX2R” value is 63%. For the same compound, the “Response (%) OX2R” value at human OX2R (test compound 1.0 μM) is 111%. Besides, the “Response (%) OX2R” value on human OX2R (test compound 10 μM) is on record as 111%. Also, at human OX1R, the Emax at 0.1 µM was below 5%, the Emax at 1 µM is 6% and the Emax at 10 µM was below 5%.

As to `COc1ccc(-c2cccc(C(=O)N(C)C)c2)cc1S(=O)(=O)Nc1cccc(NC(=O)Nc2cccc(N(C)C)c2)n1` [Example 124], the “Response (%) OX2R” value at human OX2R (test compound 0.1 μM) stood at 9%; on human OX2R (test compound 1.0 μM), 78%; on human OX2R (test compound 10 μM) it was 147%. The “Response (%) OX1R” value on human OX1R (setting [1]) is 8%; at human OX1R (setting [2]) it was 7%; at human OX1R (setting [3]), 8%.

For `COc1ccc(-c2cccc(C(=O)N(C)C)c2)cc1S(=O)(=O)Nc1cccc(N(C)C(=O)Nc2cccc(N(C)C)c2)c1` [Example 125, 3′-(N-(3-(3-(3-(dimethylamino)phenyl)-1-methylureido)phenyl)sulfamoyl)-4′-methoxy-N,N-dimethyl-[1,1′-biphenyl]-3-carboxamide], the “Response (%) OX2R” value at human OX2R (test compound 0.1 μM) worked out at 42%. Further, the “Response (%) OX2R” value at human OX2R (test compound 1.0 μM) worked out at 78%. For the same compound, on human OX2R (test compound 10 μM), the “Response (%) OX2R” value worked out at 79%. In addition, on human OX1R, the Emax at 0.1 µM was below 5%, the Emax at 1 µM is below 5% and the Emax at 10 µM is below 5%.
